The text below walks through data of ChEMBL document CHEMBL3638593, “Macrocycles as factor XIa inhibitors” (2015).

For the test, the target named is Coagulation factor XI (Homo sapiens, UniProt P03951). As to the kind of experiment: In Vitro Assay: The effectiveness of compounds of the present invention as inhibitors of the coagulation Factors XIa, VIIa, IXa, Xa, XIIa, plasma kallikrein or thrombin, can be determined using a relevant purified serine protease, respectively, and an appropriate synthetic substrate. The rate of hydrolysis of the chromogenic or fluorogenic substrate by the relevant serine protease was measured both in the absence and presence of compounds of the present invention. […] A decrease in the rate of absorbance or fluorescence change in the presence of inhibitor is indicative of enzyme inhibition. Such methods are known to one skilled in the art.
Coagulation factor XI, sequence (P03951 19-387 limits assumed): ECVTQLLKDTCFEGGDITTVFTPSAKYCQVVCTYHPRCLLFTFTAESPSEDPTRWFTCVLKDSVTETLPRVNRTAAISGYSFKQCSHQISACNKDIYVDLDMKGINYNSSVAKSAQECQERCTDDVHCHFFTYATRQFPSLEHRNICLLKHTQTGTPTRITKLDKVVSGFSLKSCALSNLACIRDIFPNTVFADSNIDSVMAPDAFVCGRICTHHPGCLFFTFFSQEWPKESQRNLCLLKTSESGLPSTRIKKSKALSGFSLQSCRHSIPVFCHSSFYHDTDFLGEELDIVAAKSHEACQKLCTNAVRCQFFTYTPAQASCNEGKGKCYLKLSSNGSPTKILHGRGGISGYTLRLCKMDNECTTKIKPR
Coagulation factor XI, sequence (P03951 388-625 limits assumed): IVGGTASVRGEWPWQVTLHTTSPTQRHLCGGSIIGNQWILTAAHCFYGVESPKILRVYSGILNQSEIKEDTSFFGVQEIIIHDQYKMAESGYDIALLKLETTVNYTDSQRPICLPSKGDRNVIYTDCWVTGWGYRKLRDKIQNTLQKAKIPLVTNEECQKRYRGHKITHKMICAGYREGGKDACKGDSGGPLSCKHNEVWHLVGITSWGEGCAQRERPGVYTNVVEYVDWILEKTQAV

pKi: −log10 of the molar value.

Consider `O=C(/C=C/c1cc(Cl)ccc1-n1cnnn1)N[C@H]1CCCCC(=O)Nc2cc3[nH]ncc3cc2-c2c[nH]c1n2`, for which the pKi is 6.74.
